From PubChem BioAssay AID743394 (Broad Institute, 2014)
Activity calls are given as the source filed them.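 How the source made its calls: active means 40% activation versus positive control reached by fitted dose-response curve at or below highest valid tested dose; inconclusive means poor fit quality, or flat fit with activation between 30% and 70%; inactive means the rest.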

Test: inactive X chromosome reactivation in XiGFP fibroblasts, dose response, imaging, 68-5-11 mouse fibroblasts, GFP, cherry-pick (AID 743394);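 further: sensitizer 5-aza-dC present in the wells at 0.5 mM final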
Conditions: 68-5-11 mouse fibroblast XiGFP reporter, % GFP-positive imaging, 3 d; at 19.5 µM (top of the series)

Structure (SMILES)	activation
Cc1cc(/C=C2/C(=O)NC(=O)N(Cc3ccco3)C2=O)c(C)n1-c1ccccc1O	-0.049% (inactive)
OCC[n+]1c2ccccc2nc2ccc(N3CCOCC3)cc21	0.02% (inactive)

Same assay, conditions: 68-5-11 mouse fibroblast XiGFP reporter, % GFP-positive imaging, 3 d; at 19.5 µM (top of the series); cells co-treated with 5-aza-dC sensitizer; scaled: neutral wells 0, ellipticine wells 100

Structure (SMILES)	activation
ClC1CCCCC1n1nnc2ccccc21 (stereo not given)	0.006% (inactive)
Cc1ccccc1NC(=O)c1c(C)[nH]c(=S)c(C#N)c1-c1ccc(Cl)cc1	0.075% (inactive)
COc1ccc(CN(C)Cc2nc(Cc3ccccc3Cl)no2)cc1OC	-0.032% (inactive)
Cc1cc(C(=O)NCc2cc(F)cc3c2OCOC3)nn1C	-0.037% (inactive)
O=C(/C=C/Sc1ccc(C(F)(F)F)cn1)c1ccccc1	0.096% (inactive)
O=C(C[C@@H]1C[C@@H]2c3cc(NC(=O)C4CCC4)ccc3O[C@@H]2[C@@H](CO)O1)NCc1ccc(Cl)cc1	0.899% (inactive)
Cc1ccc(S(=O)(=O)Nc2ccc3c(c2)C(=O)N([C@@H](C)CO)C[C@@H](C)[C@@H](CN(C)Cc2ccc(C(=O)Nc4ccccc4N)cc2)O3)cc1	1.51% (inactive)
O=C(O)c1ccccc1CSc1nc2ccccc2n1Cc1ccccc1C(=O)O	0.715% (inactive)
Clc1ccc(-c2nc(-c3ccncc3)no2)c(Cl)c1	-0.034% (inactive)
COc1ccc(-c2ccc3[nH]c4c(c3c2)CCN2C(=O)[C@@H]([C@H](C)O)[C@@H](N(C)C(=O)Nc3ccc(F)cc3)C[C@@H]42)cc1	1.96% (inactive)
O=C(c1ccc(Br)cc1)c1cc([N+](=O)[O-])ccc1N1CCOCC1	4.21% (inactive)
O=C1CSC(c2cccnc2)N1Cc1ccc(Cl)cc1Cl (stereo not given)	-0.022% (inactive)
Cc1ccc(C)c(OCCC(=O)Nc2cc(S(=O)(=O)N3CCCCC3)ccc2C)c1	-0.008% (inactive)
COc1ccc(COc2ccccc2C(=O)NCc2ccccc2)cc1F	-0.07% (inactive)
Cc1ccnc(NS(=O)(=O)c2ccc3c(c2)CCO3)c1	0.025% (inactive)
CCCCn1nnnc1C(c1ccccc1)N1CCN(c2ccc(C)cc2)CC1 (stereo not given)	0.03% (inactive)

Structure (SMILES)	activation
Cc1c(CN2CCCC(C(=O)c3cccc(OC(C)C)c3)C2)c(=O)n(-c2ccccc2)n1C (stereo not given)	-0.016% (inactive)
Cn1c(=O)[nH]c(=O)c2c1nc(SCCN1CCOCC1)n2CCCc1ccccc1	-0.047% (inactive)
COc1ccc(-c2ccc(C#N)c(SCC(=O)NCc3ccco3)n2)cc1OC	2.59% (inactive)
COC(=O)c1sc(-c2ccc(C(C)(C)C)cc2)cc1NC(=O)c1ccccc1C(=O)O	-0.053% (inactive)
COc1ccc(S(=O)(=O)Nc2cccc3c2O[C@H](CN(C)S(=O)(=O)c2cn(C)cn2)[C@H](C)CN([C@H](C)CO)C3=O)cc1	-0.035% (inactive)
O=C1CCCC(O)=C1Sc1cc(Cl)c(Cl)cc1Cl	0.118% (inactive)
Cn1c(=O)[nH]c(=O)c2c1nc1n2CCCN1Cc1ccccc1	0.106% (inactive)
CC(=O)OCCNc1cc(Sc2nc3ccccc3[nH]2)c2nonc2c1[N+](=O)[O-]	-0.034% (inactive)
Cc1ccc(S(=O)(=O)N2CCOCC2)cc1C(=O)OCC(=O)NC1CCS(=O)(=O)C1 (stereo not given)	-0.034% (inactive)
O=C(CCl)N=c1sccn1Cc1cccc2ccccc12	-0.053% (inactive)
Cc1ccc(O)c(N=Nc2ccc(S(=O)(=O)N3CCCC3)cc2)c1	0.067% (inactive)
COc1ccc(-c2nn(-c3ccccc3)cc2C(=O)NC(=S)Nc2cc(Cl)ccc2Cl)cc1	3.67% (inactive)
Cc1ccsc1C1Nc2ccccc2-c2nc3ccccc3n21 (stereo not given)	-0.047% (inactive)
C=CCn1c(=S)[nH]c2scc(-c3ccco3)c2c1=O	0.072% (inactive)
CC(=NNc1ccc2ccccc2n1)c1ccccn1	1.93% (inactive)
CCOc1ccc(N2C(=O)CC(Sc3nc(O)c(CC)c(=O)[nH]3)C2=O)cc1 (stereo not given)	0.001% (inactive)

Same assay, conditions: 68-5-11 mouse fibroblast XiGFP reporter, % GFP-positive imaging, 3 d; at 21 µM (top of the series); cells co-treated with 5-aza-dC sensitizer; scaled: neutral wells 0, ellipticine wells 100

Structure (SMILES)	activation
CO[C@H](CN(C)C(=O)Nc1ccc(C(F)(F)F)cc1)[C@@H](C)CN(Cc1ccccc1Cl)[C@@H](C)CO	0% (inactive)
